The nature of series [1]: pKa of amine lipid by TNS fluorescence. Type of series: physicochemical. The note with it: probe TNS (6-(p-toluidino)-2-naphthalenesulfonic acid sodium salt), unformulated amine lipid in ethanol, sodium phosphate buffers -9.0. The essentials:
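Unformulated amine lipid, about 100 μM final, in 0.1 M sodium phosphate buffers spanning pH 4.5–9.0 with TNS. Fluorescence read at ex 321/em 448 nm; normalized data fitted sigmoidally to give pKa.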

In another series the test system is mouse B2M gene. The series is described as follows: In vivo editing in mouse liver, LNP with Cas9 mRNA and sgRNA G650, NGS. As to conditions: Table 3; guide G650; CD-1 female mice, 0.1 mpk i.v., liver at 6 or 7 days; Exp. 2-7. The method, then:
LNPs were prepared using various amine lipids in a 4-component lipid system consisting of an ionizable lipid (e.g. an amine lipid), DSPC, cholesterol and PEG-2k-DMG. In assays for percent liver editing in mice, Cas9 mRNA and chemically modified sgRNA targeting a mouse sequence were formulated in LNPs, at either a 1:1 w/w ratio or a 1:2 w/w ratio.
The lipid components were dissolved in 100% ethanol with the lipid component molar ratios described below. The chemically modified sgRNA and Cas9 mRNA were combined and dissolved in 25 mM citrate, 100 mM NaCl, pH 5.0, resulting in a concentration of total RNA cargo of approximately 0.45 mg/mL. The LNPs were formulated with an N/P ratio of about 6, with the ratio of chemically modified sgRNA: Cas9 mRNA at either a 1:1 or 1:2 w/w ratio as described below.
CD-1 female mice, ranging from 6-10 weeks of age were used in each study. Animals were weighed and grouped according to body weight for preparing dosing solutions based on group average weight. LNPs were dosed via the lateral tail vein in a volume of 0.2 mL per animal (approximately 10 mL per kilogram body weight). The animals were periodically observed for adverse effects for at least 24 hours post dose.
For studies measuring in vivo editing in liver, CD-1 female mice were dosed at 0.1 mpk unless otherwise noted. Animals were euthanized at 6 or 7 days by exsanguinationvia cardiac puncture under isoflourane anesthesia. Liver tissue was collected from each animal for DNA extraction and analysis. Blood was collected into serum separator tubes or into tubes containing buffered sodium citrate for plasma as described herein. Cohorts of mice were measured for editing by Next-Generation Sequencing (NGS).
In brief, to quantitatively determine the efficiency of editing at the target location in the genome, genomic DNA was isolated and deep sequencing was utilized to identify the presence of insertions and deletions introduced by gene editing.
PCR primers were designed around the target site (e.g., B2M), and the genomic area of interest was amplified. Additional PCR was performed according to the manufacturer's protocols (Illumina) to add the necessary chemistry for sequencing. The amplicons were sequenced on an Illumina MiSeq instrument. The reads were aligned to the relevant reference genome (e.g., GRCm38) after eliminating those having low quality scores. The resulting files containing the reads were mapped to the reference genome (BAM files), where reads that overlapped the target region of interest were selected and the number of wild type reads versus the number of reads which contain an insertion, substitution, or deletion was calculated.
The editing percentage (e.g., the “editing efficiency” or “percent editing”) is defined as the total number of sequence reads with insertions or deletions over the total number of sequence reads, including wild type.
We assessed in vivo editing efficiency for materials delivered with formulations including various amine lipid compounds. Editing was measured using either G282 (SEQ ID No: 1) which targets the mouse TTR gene or G650 (SEQ ID No. 2) which targets the mouse B2M gene. Lipids described above were assessed for efficacy through in vivo editing experiments. LNPs were formulated at a 1:1 w/w ratio of sgRNA to Cas9 mRNA, and at an N/P ratio of about 6. Molar concentrations of lipids in the lipid component of the LNPs are expressed as mol % amine lipid/DSPC/cholesterol/PEG-2k-DMG, e.g. 50/10/38.5/1.5. The final LNPs were characterized to determine the encapsulation efficiency, polydispersity index, and average particle size according to the analytical methods provided above. Analysis of average particle size, polydispersity (PDI), total RNA content and encapsulation efficiency of RNA are shown in Table 2.

Another series concerns mouse TTR. Put plainly: Serum TTR ELISA in mice after LNP delivery. Type of series: in vivo. The note with it: mouse serum, relative to TSS control of same experiment. In outline:
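Female CD-1 mice received LNP at 0.1 mpk unless noted; serum was collected 6 or 7 days later. Total serum TTR was measured by mouse prealbumin ELISA at 10,000- and/or 2,500-fold dilution and is expressed as a percentage of vehicle control.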

Series [2] in a line: LNP average particle size and polydispersity by dynamic light scattering. Type of series: physicochemical. As to conditions: LNP with the compound as amine lipid, composition ratio (mol %) 50/9/38/3 for Cmpnd 49, 50/10/38.5/1.5 for the others. The essentials:
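LNPs were diluted in PBS to a count rate of about 200-400 kcps and measured by DLS on a Zetasizer. Size is the intensity-weighted Z-average diameter, reported with number-average diameter, and the polydispersity index describes the spread of sizes around the mean.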

Series [3] can be described thus: RNA encapsulation efficiency of LNP (Ribogreen fluorescence assay). It counts as physicochemical. As to conditions: LNP with the compound as amine lipid, composition ratio (mol %) 50/9/38/3 for Cmpnd 49, 50/10/38.5/1.5 for the others. In outline: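 LNP samples diluted in 1× TE with or without 0.2% Triton-X 100 for total or free RNA, stained ~10 min at room temperature in the dark with RiboGreen; fluorescence ex 488/em 525 nm against RNA standard curves. Encapsulation efficiency = (Total RNA−Free RNA)/Total RNA.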

Values joined by “and” are separate entries in the source; they are usually repeats but may differ in a detail not shown here. Equal values may be shown once.

In the case of `CCCCC/C=C\C/C=C\CCCCCCCC(=O)OCC(COC(=O)CCCCCCC/C=C\C/C=C\CCCCC)OC(=O)CCC(CCCCCCCCCCCC)OC(=O)OC1CCN(CC)CC1` (centres unmarked) [Compound 6, 2-((4-((((1-ethylpiperidin-4-yl)oxy)carbonyl)oxy)hexadecanoyl)oxy)propane-1,3-diyl (9Z,9′Z,12Z,12′Z)-bis(octadeca-9,12-dienoate)], in series [1], the pKa stood at 5.37. In addition, the “Editing Mean % Indel” value with mouse B2M gene stood at 0.4%.
For `CCCCC/C=C\C/C=C\CCCCCCCC(=O)OCC(COC(=O)CCCCCCC/C=C\C/C=C\CCCCC)OC(=O)CCC(CCCCCCCCCCCC)OC(=O)C1(C)CCN(C)CC1` (centres unmarked) [Compound 10, 2-((4-((1,4-dimethylpiperidine-4-carbonyl)oxy)hexadecanoyl)oxy)propane-1,3-diyl (9Z,9′Z,12Z,12′Z)-bis(octadeca-9,12-dienoate)] the same measures were 6.05 and 5.3%.
On to `CCCCC/C=C\C/C=C\CCCCCCCC(=O)OCC(COC(=O)CCCCCCC/C=C\C/C=C\CCCCC)OC(=O)CCC(CCCCCCCC)OC(=O)NCCN(CC)CC` (centres unmarked) [Compound 96, 2-((4-(((2-(diethylamino)ethyl)carbamoyl)oxy)dodecanoyl)oxy)propane-1,3-diyl (9Z,9′Z,12Z,12′Z)-bis(octadeca-9,12-dienoate)], for which the pKa in series [1] worked out at 6.14. Further, the “Serum TTR % TSS” value in the series with mouse TTR (dose 0.03 mpk) came to 70% TSS. Moreover, in series [2] (Expt. 10), the “Num Ave Size (nm)” value was 73 nm, the PDI is 0.03 and the “Z-Ave Size (nm)” value was found to be 89 nm. Besides, the Encapsulation (%) in series [3] (Expt. 10) is 98%.
On to `CCCCC/C=C\C/C=C\CCCCCCCC(=O)OCC(COC(=O)CCCCCCC/C=C\C/C=C\CCCCC)OC(=O)CCCC(CCCCCCCC)OC(=O)NCCN(C)CC` (centres unmarked) [Compound 97, 2-((5-(((2-(ethyl(methyl)amino)ethyl)carbamoyl)oxy)tridecanoyl)oxy)propane-1,3-diyl (9Z,9′Z,12Z,12′Z)-bis(octadeca-9,12-dienoate)], for which the pKa in series [1] worked out at 6.38. In the series with mouse TTR (dose 0.03 mpk), the “Serum TTR % TSS” value was determined as 79% TSS. For the same molecule, in series [2] (Expt. 10), the “Num Ave Size (nm)” value was 75 nm, the PDI worked out at 0.03 and the “Z-Ave Size (nm)” value stood at 92 nm. In addition, the Encapsulation (%) in series [3] (Expt. 10) was determined as 98%.
Take `CCCCC/C=C\C/C=C\CCCCCCCC(=O)OCC(COC(=O)CCCCCCC/C=C\C/C=C\CCCCC)COC(=O)C(C)(C)C(CCCCCC)OC(=O)NCCN1CCCC1` (centres unmarked) [Compound 100, 2-(((2,2-dimethyl-3-(((2-(pyrrolidin-1-yl)ethyl)carbamoyl)oxy)nonanoyl)oxy)methyl)propane-1,3-diyl (9Z,9′Z,12Z,12′Z)-bis(octadeca-9,12-dienoate)]: the pKa in series [1] is 6.6. Moreover, the “Serum TTR % TSS” value with mouse TTR (dose 0.03 mpk) was determined as 46.68 % TSS. Moreover, in series [2] (Expt. 9), the “Num Ave Size (nm)” value turned out to be 83 nm, the PDI came to 0.05 and the “Z-Ave Size (nm)” value is 102 nm. Also, the “Encapsulation (%)” value in series [3] (Expt. 9) was 99%.
Regarding `CCCCC/C=C\C/C=C\CCCCCCCC(=O)OCC(COC(=O)CCCCCCC/C=C\C/C=C\CCCCC)OC(=O)CCC(CC(CC)CC)OC(=O)NCCN(C)CC` (centres unmarked) [Compound 103, 2-((6-ethyl-4-(((2-(ethyl(methyl)amino)ethyl)carbamoyl)oxy)octanoyl)oxy)propane-1,3-diyl (9Z,9′Z,12Z,12′Z)-bis(octadeca-9,12-dienoate)], the pKa in series [1] is 6.09. For the same molecule, in the series with mouse TTR (dose 0.03 mpk), the “Serum TTR % TSS” value is 72.23 % TSS. The “Serum TTR % TSS” value with mouse TTR (dose 0.1 mpk) came out at 29.05 % TSS. Moreover, in series [2] (Expt. 6), the “Num Ave Size (nm)” value was 82 nm, the PDI came to 0.01 and the “Z-Ave Size (nm)” value stood at 102.00 nm. Besides, the “Encapsulation (%)” value in series [3] (Expt. 6) is on record as 91%.
As for `CCCCC/C=C\C/C=C\CCCCCCCC(=O)OCC(COC(=O)CCCCCCC/C=C\C/C=C\CCCCC)OC(=O)CCC(CCC(C)CCCC(C)C)OC(=O)NCCN1CCCC1` (centres unmarked) [Compound 105, 2-((7,11-dimethyl-4-(((2-(pyrrolidin-1l-yl)ethyl)carbamoyl)oxy)dodecanoyl)oxy)propane-1,3-diyl (9Z,9′Z,12Z,12′Z)-bis(octadeca-9,12-dienoate)], in series [1], the pKa came out at 6.53. Further, the “Serum TTR % TSS” value in the series with mouse TTR (dose 0.03 mpk) turned out to be 47.97 % TSS. Also, in series [2] (Expt. 9), the “Num Ave Size (nm)” value worked out at 64 nm, the PDI was found to be 0.02 and the “Z-Ave Size (nm)” value worked out at 80 nm. For the same molecule, in series [3] (Expt. 9), the “Encapsulation (%)” value amounted to 99%.
In the case of `CCCCC/C=C\C/C=C\CCCCCCCC(=O)OCC(COC(=O)CCCCCCC/C=C\C/C=C\CCCCC)OC(=O)CCC(CC(CC)CC)OC(=O)NCCN1CCCC1` (centres unmarked) [Compound 106, 2-((6-ethyl-4-(((2-(pyrrolidin-1-yl)ethyl)carbamoyl)oxy)octanoyl)oxy)propane-1,3-diyl (9Z,9′Z,12Z,12′Z)-bis(octadeca-9,12-dienoate)], the pKa in series [1] turned out to be 6.8. Moreover, the “Serum TTR % TSS” value in the series with mouse TTR (dose 0.03 mpk, 0.03 mg/kg) was 82.47 % TSS and 88.7 % TSS. For the same molecule, in series [2] (Expt. 9), the “Num Ave Size (nm)” value is reported as 74 nm, the PDI was found to be 0.01 and the “Z-Ave Size (nm)” value was determined as 91 nm. The “Encapsulation (%)” value in series [3] (Expt. 9) worked out at 99%.
With `CCCCC/C=C\C/C=C\CCCCCCCC(=O)OCC(COC(=O)CCCCCCC/C=C\C/C=C\CCCCC)OC(=O)CCC(CC/C=C\CCCCC)OC(=O)NCCN(C)CC` (centres unmarked) [Compound 107, 2-(((Z)-4-(((2-(ethyl(methyl)amino)ethyl)carbamoyl)oxy)tridec-7-enoyl)oxy)propane-1,3-diyl (9Z,9′Z,12Z,12′Z)-bis(octadeca-9,12-dienoate)], in series [1], the pKa came to 6.35. The “Serum TTR % TSS” value in the series with mouse TTR (dose 0.03 mpk) is 58.53 % TSS. Also, in series [2] (Expt. 9), the “Num Ave Size (nm)” value came to 72 nm, the PDI is 0.03 and the “Z-Ave Size (nm)” value came out at 89 nm. Further, the “Encapsulation (%)” value in series [3] (Expt. 9) came to 98%.
For the molecule `CCCCC/C=C\C/C=C\CCCCCCCC(=O)OCC(COC(=O)CCCCCCC/C=C\C/C=C\CCCCC)OC(=O)CCC(CC/C=C\CCCCC)OC(=O)NCCN1CCCC1` (centres unmarked) [Compound 108, 2-(((Z)-4-(((2-(pyrrolidin-1-yl)ethyl)carbamoyl)oxy)tridec-7-enoyl)oxy)propane-1,3-diyl (9Z,9′Z,12Z,12′Z)-bis(octadeca-9,12-dienoate)], the pKa in series [1] amounted to 6.52. Also, the “Serum TTR % TSS” value with mouse TTR (dose 0.03 mpk) turned out to be 57.12 % TSS. Besides, in series [2] (Expt. 9), the “Num Ave Size (nm)” value is given as 73 nm, the PDI is recorded as 0.03 and the “Z-Ave Size (nm)” value is 89 nm. Also, the “Encapsulation (%)” value in series [3] (Expt. 9) worked out at 99%.

These data come from US12077483B2, “Modified amine lipids” (Intellia Therapeutics, Inc., priority 2018, dated 2024).
